Source: patent US20090263451A1, “Anti-Inflammatory and/or Analgesic Agents for Treatment of Myofascial Pain” (Warsaw Orthopedic, Inc., priority 2008, published 2009)

Assays:
[1] = system: Rat Chronic Constriction Injury Model; details: 0.02 mg/kg/day subcutaneously; vs. 45% for unloaded polymer depots; FIG. 3
Description: (§1) A 2-month chronic constriction injury (CCI) model of neuropathic pain was used to evaluate different formulations of a clonidine, encapsulated in bioerodable polymers compared to clonidine given subcutaneously (SC).
(§2) The inventors evaluated the efficacy of a five Month Clonidine/Polymer Drug Depot in the Rat Chronic Constriction Injury Model. The animal model was the Bennett Model (Wistar rat). The purpose: To determine whether a five month polymer clonidine-eluting depot can improve pain associated behavioral responses in a rat model of neuropathic pain.
(§3) Experimental Design: Four loose chromic gut ligatures, 1 mm apart, were tied around the common sciatic nerve at mid-thigh. Each animal received treatment of test or control article-according to the dosing described in Table 5.
(§4) The inventors have conducted the present study for a period of 64 days and have employed the following two tests: (1) the Hargreaves test; and (2) the von Frey test. The Hargreaves Tests of Thermal Hyperalgesia were conducted on days 7, 14, 21, 28, 35, 42, 49, 56 and 63. The von Frey monofilament test of mechanical allodynia (performed the day following Thermal testing) were conducted on days-8, 15, 22, 29, 36, 43, 50, 57 and 64.

[2] = system: Rat Chronic Constriction Injury Model; details: 0.02 mg/kg/day subcutaneously; compared to unloaded polymer depots; FIG. 4
Description: as §1, §2, §3, §4

Clc1cccc(Cl)c1N=C1NCCN1 [clonidine, 2,6-dichloro-N-2-imidazolidinyldenebenzenamine]
pain behavioral response (percentage of baseline), thermal hyperalgesia [1]: 58% | pain behavioral response (percentage of baseline), mechanical allodynia [2]: reduced the behavioral response
